In brackets after ≈: the same amount, converted by molar mass.
Experiments:
CEM-SS = assay: Cytotoxicity against human CEM-SS cells; type: cell-based
[1] = tested on: Human immunodeficiency virus 1; assay: Antiviral activity against HIV1 infected in human CEM-SS cells assessed as inhibition of virus-induced cytopathic effect by XTT assay; type: functional, organism-based; settings: Human immunodeficiency virus 1, CEM-SS

CCC(C)(C)[C@H](NC(=O)[C@H](NC(=O)[C@@H]1CCCN1C(=O)C(NC(=O)[C@@H](C)NC=O)C(O)c1ccc(Br)cc1)C(C)(C)C)C(=O)N[C@H](Cc1c[nH]c2ccccc12)C(=O)N[C@@H](CCCNC(=N)N)C(=O)N[C@H](CS(=O)(=O)O)C(=O)N[C@@H]1C(=O)N(C)[C@@H](CCC(N)=O)C(=O)N[C@H](C(C)C)C(=O)N2CCC[C@H]2C(=O)N[C@H](CC(=O)O)C(=O)O[C@@H]1C (some centres not stated) [MICROSPINOSAMIDE]
IC50 (CEM-SS): 3 µg/mL (≈ 1.74 µM) | EC50 [1]: 0.2 µg/mL (≈ 0.116 µM)

From ChEMBL document CHEMBL1150232, “Microspinosamide, a new HIV-inhibitory cyclic depsipeptide from the marine sponge Sidonops microspinosa” (J Nat Prod, 2001)
